pKd: −log10 of the molar value.
What was measured:
[1] = Binding affinity to Escherichia coli J96 FimH lectin domain (Phe1 to Thr158) expressed in Escherichia coli C43 (DE3) by isothermal titration calorimetry assay
[2] = Binding affinity to Escherichia coli J96 FimH lectin domain (Phe1 to Thr158) expressed in Escherichia coli C43 (DE3) by surface plasmon resonance analysis

Row | SMILES | pKd [1] | pKd [2]
1 | CCCCCCCO[C@H]1O[C@H](CO)[C@@H](O)[C@H](O)[C@@H]1O | 8.14 | 8.51
2 | COCC#Cc1ccc(O[C@H]2O[C@H](CO)[C@@H](O)[C@H](O)[C@@H]2O)cc1 | 7.23 | –
3 | COc1ccc(C#CCO[C@H]2O[C@H](CO)[C@@H](O)[C@H](O)[C@@H]2O)cc1 | – | 7.28
4 | OCC#Cc1ccc(O[C@H]2O[C@H](CO)[C@@H](O)[C@H](O)[C@@H]2O)cc1 | – | 7.43
5 | O=C(C[C@H]1O[C@H](CO)[C@@H](O)[C@H](O)[C@@H]1O)Nc1ccccc1 | – | 6.43
6 | O=C(C[C@H]1O[C@H](CO)[C@@H](O)[C@H](O)[C@@H]1O)Nc1ccc(Cl)cc1 | – | 6.95
7 | O=C(C[C@H]1O[C@H](CO)[C@@H](O)[C@H](O)[C@@H]1O)Nc1nc2ccccc2[nH]1 | – | 5.38
8 | CCCCO[C@H]1O[C@H](CO)[C@@H](O)[C@H](O)[C@@H]1O [BUTYLALPHAMAN] | 6.81 | 6.82
9 | O=C(C[C@H]1O[C@H](CO)[C@@H](O)[C@H](O)[C@@H]1O)Nc1nc2ccccc2s1 | – | 7.23
10 | CCCSCCCO[C@H]1O[C@H](CO)[C@@H](O)[C@H](O)[C@@H]1O | – | 7.85
11 | O=C(C[C@H]1O[C@H](CO)[C@@H](O)[C@H](O)[C@@H]1O)Nc1ccc(O)cc1 | – | 6.48

From ChEMBL document CHEMBL3091414, “Validation of Reactivity Descriptors to Assess the Aromatic Stacking within the Tyrosine Gate of FimH” (ACS Med Chem Lett, 2013)
